Assay results taken from patent US10844051B2, “Substituted oxazoles for the treatment of cancer” (THE ROYAL INSTITUTION FOR THE ADCANCEMENT OF …, priority 2015, dated 2020).
“Also recorded” adds a separate entry of the source.

Legend:
[1] = system: interferon signaling pathway in THP-1 cells; assay: Western blot, interferon signaling in THP-1 cells; assay type: cell-based; settings: 16 hours
Experimental: THP1 cells were treated for 16 hours with the indicated concentration (μM) of compounds or DMSO vehicle control. Whole-cell extracts were prepared and subjected to Western blot analysis with the antibodies as indicated.

hSTING and/or mSTING = assay: hSTING- or mSTING-dependent ISRE-luc reporter assay in 293T cells; assay type: cell-based; settings: 24 hours
Experimental: ISRE-luc (reporter), pRL-TK (internal control) and hSTING- or mSTING-expressing plasmids were transiently transfected into 293T cells. Cells were exposed to DMSO vehicle control or compounds for 24 hours. Experiments were done in triplicate.

[2] = system: phosphorylation of ERK in Panc 10.05 cells; assay: Western blot, phosphorylation of ERK in Panc 10.05 cells; assay type: cell-based; settings: 10 μM, 24 hours
Experimental: C-PARP, cleaved PARP. Panc10.05 cells were exposed to DMSO vehicle or compounds at designated doses for 24 hours.
Panc10.05 cells were exposed to DMSO vehicle or compounds at designated doses for 24 hours.

[3] = system: phosphorylation of ERK in HCT-116 cells; assay: Western blot, phosphorylation of ERK in HCT-116 cells; assay type: cell-based; settings: 10 μM, 24 hours
Experimental: HCT-116 cells were exposed to DMSO vehicle or compounds at designated doses for 24 hours.

[4] = biological target: T1, recombinant protein of human GATA2 (Homo sapiens, UniProt P23769); assay: SPR analysis on amine-coupled GATA2; assay type: binding; settings: 50 μM each
T1 sequence (P23769 1-480): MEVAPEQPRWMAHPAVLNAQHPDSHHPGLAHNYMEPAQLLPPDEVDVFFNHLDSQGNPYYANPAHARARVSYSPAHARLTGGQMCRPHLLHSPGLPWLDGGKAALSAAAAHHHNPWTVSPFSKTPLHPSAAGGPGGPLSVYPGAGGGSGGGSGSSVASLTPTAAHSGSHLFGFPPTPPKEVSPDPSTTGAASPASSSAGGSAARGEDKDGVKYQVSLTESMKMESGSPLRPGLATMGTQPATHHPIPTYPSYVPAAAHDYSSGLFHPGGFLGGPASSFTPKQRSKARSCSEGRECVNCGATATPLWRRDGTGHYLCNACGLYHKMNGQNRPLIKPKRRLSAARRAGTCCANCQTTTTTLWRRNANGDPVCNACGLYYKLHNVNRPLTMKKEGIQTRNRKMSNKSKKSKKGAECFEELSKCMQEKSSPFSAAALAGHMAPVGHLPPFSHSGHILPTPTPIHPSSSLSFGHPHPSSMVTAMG
Text: In embodiments of the invention, the androgen-bound AR is regressing GATA2 expression and inhibition of AR via castration or use of antiandrogen releases such expression. […] Overexpression of GATA2 confers resistance to antiandrogen bicalutamide (Bic) (FIG. 2.9). Compound 673 is effective against the LNCaP stably transfected with GATA2-expressing plasmid (referred to as LNCaP-GATA2 cells) (FIG. 2.8).

human GATA2 = biological target: T2, human GATA2 (Homo sapiens, UniProt P23769); assay: GATA2-dependent reporter assay in IHH cells; assay type: cell-based; settings: GATA-Luc reporter, 48 h
T2 construct: expressed in transfected cells; host or cells: IHH
T2 sequence (P23769 1-480): T1 sequence (P23769 1-480)
Experimental: K7174 is a known GATA2 inhibitor. The IHH cells were transiently transfected with empty vector (for the NT) or human GATA2-expressing plasmid as well as pRL-TK (internal control) and GATA-Luc reporter plasmids. Cells were exposed to DMSO vehicle or compounds for 48 h. Experiments were in triplicate.

Fc1cccc(-c2nc(CNCCc3c[nH]c4ccccc34)[nH]c2-c2cccc(F)c2)c1 [Compound 874] was tested, and the “activation of interferon signaling pathway (Western blot)” value [1] was “activate interferon signaling pathway”, the “activation of hSTING and/or mSTING in ISRE-luc reporter assay” value (“activation of hSTING and/or mSTING” for short) (hSTING and/or mSTING) was “activate hSTING and/or mSTING” and the “activation of hSTING and/or mSTING” value (hSTING and/or mSTING; 10 μM) was “activate hSTING and/or mSting”.

Fc1cccc(-c2nc(CN3CCC(c4noc5ccccc45)CC3)[nH]c2-c2cccc(F)c2)c1 [Compound 1100] was tested, and the “suppression of phosphorylation of ERK (Western blot)” value (“suppression” for short) [2] was “potently suppressed phosphorylation of ERK” and the “activation of hSTING and/or mSTING” value (hSTING and/or mSTING) was “activate hSTING and/or mSTING”.

With c1ccc(CN2CCN(Cc3nc(-c4ccccc4)c(-c4ccccc4)o3)CC2)cc1 [Compound 1176] the “activation of interferon signaling pathway (Western blot)” value [1] was “activate interferon signaling pathway”, the “activation of hSTING and/or mSTING” value (hSTING and/or mSTING) was “activate hSTING and/or mSTING” and the “activation of hSTING and/or mSTING” value (hSTING and/or mSTING; 10 μM) was “activate hSTING and/or mSTING”.

With N#CCN(CCc1c[nH]c2ccccc12)Cc1nc(-c2ccccc2)c(-c2ccccc2)[nH]1 [Compound 1187] the “suppression” value [2] was “potently suppressed phosphorylation of ERK” and the “suppression” value [3] was “potently suppressed phosphorylation of ERK”.

COc1ccc(CC/C(=C/C(=O)N2CCC(O)(c3cccc(C(F)(F)F)c3)CC2)c2ccccc2)cc1F [Compound 1200] was tested, and the “suppression” value [2] was “potently suppressed phosphorylation of ERK”.

For OC1(c2cccc(C(F)(F)F)c2)CCN(Cc2nc(-c3cccc(F)c3)c(-c3cccc(F)c3)[nH]2)CC1 [Compound 1209], the “suppression” value [3] was “potently suppressed phosphorylation of ERK”.

With COc1cccc(N2CCN(C(=O)C/C(=C/Cc3ccc(OC)c(F)c3)c3ccccc3)CC2)c1 [Compound 1237] the “suppression” value [2] was “potently suppressed phosphorylation of ERK” and the “suppression” value [3] was “potently suppressed phosphorylation of ERK”.

For COc1ccc(CC/C(=C/C(=O)N2CCC(O)(c3ccccc3)CC2)c2ccc(Cl)cc2)cc1F [Compound 1306], the “suppression” value [3] was “potently suppressed phosphorylation of ERK”.

In the case of O=C(CC(O)(CCc1ccccc1)c1ccccc1)N1CCC(O)(c2ccccc2)CC1 (centres unmarked) [Compound V248], the “binding to amine-coupled GATA2 (SPR)” value [4] is reported as “Direct binding; also recorded: Specific binding” and the “GATA2 inhibition in GATA2-dependent reporter assay” value (human GATA2) is reported as “GATA2 inhibitors”.
